# Reference: patent US20010049369A1, “Brimonidine compositions and methods for retinal degeneration” (priority 2000, published 2001)
# Read-outs that look alike come from different tables or passages of the source.
# Tests used:
# cAMP = settings: retina (Osborne 1991); cited from earlier work
# [1] = test system: Müller cells of RPE-free eye rudiments; settings: for upregulation of GFAP induced by RPE removal: brimonidine added to culture media; for glutamine synthetase (GS) immunoreactivity: brimonidine-treated RPE-free eye rudiments
# Protocol: (§1) The following studies were performed on Xenopus embryos. Briefly, eye rudiments were removed from stage 33/34 Xenopus embryos. The RPE was peeled from the outer retinal surface and eyes were cultured for 3 days in Niu-Twitty (NT) medium. The same experiment was performed in NT medium containing 0.001% brimonidine. Control conditions included eye rudiments cultured with the RPE and eyes allowed to mature in vivo to an equivalent developmental stage. Retinal morphology was assessed, carefully evaluating PRs and MCs.
# (§2) The culture preparation used in these studies has been previously described (Hollyfield, 1974; Lolley, 1977; Stiemke, 1994; Stiemke, 1995; and Jablonski, 1999). The handling of animals was in accordance with the Declaration of Helsinki and The Guiding Principles in the Care and Use of Animals (DHEW Publication, NIH 80-23). Human chorionic gonadotropin (Sigma Chemical Co., St. Louis, Mo.) was to induce adult Xenopus laevis to breed. The external staging system of Nieuwkoop and Faber was used to determine retinal maturity (Nieuwkoop, 1956). Embryos and isolated eyes were maintained under cyclic lighting conditions (12 hour light: 12 hour dark) in all experiments, rudimentary eyes were removed from embryos at state 33/34, just as photoreceptor outer segments are beginning to form (Stiemke, 1994). Eyes were maintained in vitro for three days at 23° C. in Niu-Twitty medium (Jacobson, 1967) after which they were fixed for subsequent analyses.
# When appropriate, the overlying RPE was gently peeled away from the neuroepithelium using finely polished forceps, leaving the underlying retina exposed to the culture medium. Eye rudiments without a closely adherent RPE were cultured in Niu-Twitty media alone, Niu-Twitty containing 0.001% brimonidine. Eyes allowed to mature in vitro in the presence of an adherent RPE in Niu-Twitty medium alone were used as controls.
# Any eye with an uneven surface or which had many loose cells associated with it was discarded.
# [2] = expected, topical administration, to be verified
# Text: The intraocular concentration is likely to be inversely proportional to the surface area available for absorption. […] Once verified, the dosage of brimonidine in eyedrops will be adjusted accordingly (10:1 dilution, i.e. 0.02%) to mimic more closely the intraocular concentrations that would be reached during human application.
# The intraocular concentration is likely to be inversely proportional to the surface area available for absorption. […] Once verified, the dosage of brimonidine in the eyedrops would be adjusted accordingly (predicted to be a 10:1 dilution, i.e., 0.02%) to mimic more closely the intraocular concentrations that would be reached during human application.
# retinal ganglion cells = settings: rat, intraperitoneal administration (Yoles et al 1999); cited from earlier work
# ischemic retinal injury = settings: cited from earlier work
# [3] = primate, 2% solution of brimonidine tartrate, twice daily; cited from earlier work
# opsin = settings: 0.0001% brimonidine in culture media
# Protocol: as §1
# as §2, with “Eyes were maintained in vitro for three days at 23° C. in Niu-Twitty medium (Jacobson, 1967) after which they were fixed for subsequent analyses.” left out
# [4] = rabbit, cited from earlier work
# [5] = topical administration to the eye, animals and clinical trials; cited from earlier work
# [6] = test system: mitogen-activated protein kinase (MAPK); settings: systemically administered (Peng et al., 1998); cited from earlier work
# photoreceptors = settings: albino rats, cited from earlier work; for protection of photoreceptors from light damage: systemic administration (Wen et al., 1996)
# [7] = test system: retinal degeneration (RP); settings: patients with RP, 15,000 I.U. daily (Berson 1993); cited from earlier work
# [8] = topically applied, glaucomatous patients (Lachkar 1998; Carlsson 1999); cited from earlier work
compound,measurement,setting,value
Brc1c(NC2=NCCN2)ccc2nccnc12 [UK 14304],cAMP levels following stimulation with forskolin and VIP,cAMP,reduce cAMP levels
"Brc1c(NC2=NCCN2)ccc2nccnc12 [brimonidine, 5-bromo-6-(2-imidazolidinylideneamino)-quinoxaline]",n-cadherin immunolocalization patterns,"[1]; 0.0001% brimonidine, RPE removed, data not shown",preserved
same,upregulation of GFAP induced by RPE removal,[1]; RPE removed,virtually abolished
same,upregulation of GFAP induced by RPE removal,"[1]; RPE removed, listed as Brimonidine",prevented the upregulation of GFAP expression
same,glutamine synthetase (GS) immunoreactivity,[1],well preserved
same,glutamine synthetase (GS) immunoreactivity,[1]; listed as Brimonidine,allows Müller cells to express glutamine synthetase in the absence of the RPE
same,intraocular concentration in mouse eye relative to primate eye,[2],approximately 10 times
same,loss of retinal ganglion cells induced by the crush,retinal ganglion cells,effective in decreasing loss of retinal ganglion cells
same,ERG b-wave truncation due to ischemia,ischemic retinal injury; retinal ischemia,partially prevent this b-wave truncation
same,ischemic retinal injury,ischemic retinal injury; topically applied 1 hour before injury (Wheeler et al. 1999),effective in decreasing ischemic retinal injury
same,intravitreal concentration reached via topical administration,[3],100 nM
same,amount of opsin/eye compared to RPE-free eyes cultured without brimonidine,opsin,marked increase
same,intravitreal concentration reached via topical administration,"[4]; 2% solution of brimonidine tartrate, twice daily",450 nM
same,concentration reaching the fellow eye via the systemic circulation,[4]; topical administration to the other eye,< 15 nM
same,intraocular pressure (IOP),[5],decrease in intraocular pressure
Clc1cccc(Cl)c1N=C1NCCN1 [clonidine],MAPK phosphorylation in Müller cells,[6],activate selectively and specifically
same,protection of photoreceptors from light damage,photoreceptors,protect the photoreceptors of albino rats from light damage
same,cAMP levels following stimulation with forskolin and VIP,cAMP,reduce cAMP levels
CCCCCCCCCCCCCCCC(=O)OC/C=C(C)/C=C/C=C(C)/C=C/C1=C(C)CCCC1(C)C [vitamin A palmitate],progression of retinal degeneration,[7],"slowed, but did not prevent, the progression of retinal degeneration"
Cc1cccc(C)c1N=C1NCCCS1 [xylazine],MAPK phosphorylation in Müller cells,[6],activate selectively and specifically
same,protection of photoreceptors from light damage,photoreceptors,protect the photoreceptors of albino rats from light damage
COC(=O)[C@@H]1[C@H]2C[C@H]3c4[nH]c5ccccc5c4CCN3C[C@@H]2CC[C@@H]1O [yohimbine],effect of pretreatment on the protective effect of xylazine and clonidine,"photoreceptors; pretreatment with the antagonist (Wen et al., 1996)",prevented the protective effect
brimonidine tartrate,"blood flow in ophthalmic, central retinal, nasal and temporal ciliary arteries",[8],did not affect the blood flow
